In patent US20230158025A1 (UNIVERSITY OF UTAH RESEARCH FOUNDATION, priority 2020, published 2023):
Like-named read-outs stand apart in the source and are kept apart here.

Experiments:
recombinant human GALK1 = recombinant human GALK1 (Homo sapiens, UniProt P51570); assay: hGALK1 biochemical activity assay (Kinase-Glo Plus, ATP depletion)
Summary of the method: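 Turnover is measured as ATP depletion by Kinase-Glo Plus luminescence after a 1 h room-temperature reaction. Compounds span 11 concentrations, 57.4 μM–0.97 nM, in final 20 mM HEPES pH 8.0 with 5 mM MgCl2. The substrate solution held 35 μM ATP; the added solution held 5 nM human or mouse GALK1 and 100 μM galactose.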

recombinant mouse GALK1 = recombinant mouse GALK1 (Mus musculus, UniProt Q9R0N0); assay: mGALK1 biochemical activity assay (Kinase-Glo Plus, ATP depletion)
Chain of recombinant mouse GALK1 (Q9R0N0 whole entry): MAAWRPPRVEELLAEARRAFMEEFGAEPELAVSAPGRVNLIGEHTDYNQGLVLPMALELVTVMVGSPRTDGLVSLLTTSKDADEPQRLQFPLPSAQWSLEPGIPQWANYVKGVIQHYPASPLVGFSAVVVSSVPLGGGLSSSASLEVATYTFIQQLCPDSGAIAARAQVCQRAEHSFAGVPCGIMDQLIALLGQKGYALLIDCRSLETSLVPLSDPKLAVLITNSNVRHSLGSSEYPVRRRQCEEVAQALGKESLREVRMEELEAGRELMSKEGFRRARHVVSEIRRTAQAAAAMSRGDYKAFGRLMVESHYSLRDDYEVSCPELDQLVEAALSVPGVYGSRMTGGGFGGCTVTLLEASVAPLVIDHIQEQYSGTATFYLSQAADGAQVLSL
Summary of the method: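 Recombinant GALK1 (5 nM) with 100 μM galactose; GALK1 turnover read as ATP depletion by Kinase-Glo Plus luminescence. Reaction ran 1 h at room temperature before detection reagent was added.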

[1] = aqueous kinetic solubility
[2] = rat microsomal stability (RLM)
[3] = Tables 2-15, 35 μM ATP, 100 μM galactose, 1 h, bracketed figure after some values (e.g. −1.2) is undefined and not reported, read-out: hGALK IC50
[4] = recombinant human GALK1, Kinase-Glo Plus ATP depletion, read-out: hGALK
[5] = Tables 2-15, 35 μM ATP, 100 μM galactose, 1 h, bracketed figure after some values is undefined and not reported, read-out: mGALK IC50
[6] = recombinant mouse GALK1, Kinase-Glo Plus ATP depletion, read-out: mGALK
[7] = recombinant human GALK1, Kinase-Glo Plus ATP depletion, bracketed figure in the cell, e.g. (−1.2), is not defined in the text shown, read-out: hGALK
[8] = microsomal stability half-life, minutes

Chain of recombinant human GALK1 (P51570 whole entry): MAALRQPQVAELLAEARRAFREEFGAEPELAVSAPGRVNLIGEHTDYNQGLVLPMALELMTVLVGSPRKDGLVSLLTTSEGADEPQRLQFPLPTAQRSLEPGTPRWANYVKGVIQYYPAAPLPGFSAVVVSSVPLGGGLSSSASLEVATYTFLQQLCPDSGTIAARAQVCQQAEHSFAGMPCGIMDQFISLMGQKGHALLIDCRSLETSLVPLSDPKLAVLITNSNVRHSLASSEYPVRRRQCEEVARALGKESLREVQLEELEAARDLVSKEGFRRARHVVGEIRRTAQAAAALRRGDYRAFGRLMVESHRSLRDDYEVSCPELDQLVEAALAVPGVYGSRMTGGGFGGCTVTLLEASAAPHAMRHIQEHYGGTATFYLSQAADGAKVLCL

SMILES	IC50 (recombinant human GALK1; [3])	IC50 (recombinant human GALK1; [4])	IC50 (recombinant mouse GALK1; [5])	IC50 (recombinant mouse GALK1; [6])	Perm. (1 × 10^−6 cm/sec) (PAMPA permeability; PAMPA)	Sol. ([1]; aqueous kinetic solubility)	Metab. Stabil. (m) ([2]; microsomal stability half-life)	other results
CC1=C(C(=O)Nc2ccc(C(N)=O)cc2)C(c2ccccc2Cl)N=C(Nc2nc3ccccc3o2)N1 (centres unmarked) [Compound 181, 2-(benzo[d]oxazol-2-ylamino)-N-(4-carbamoylphenyl)-4-(2-chlorophenyl)-6-methyl-1,4-dihydropyrimidine-5-carboxamide]	4.32 µM	4.32 µM	6.85 µM	6.85 µM	<6.3 1 × 10^−6 cm/sec	<1 µg/mL	>30 m	
CC1=C(C(=O)Nc2ccccc2O)C(c2ccccc2Cl)N=C(Nc2nc3ccccc3o2)N1 (centres unmarked) [Compound 161, 2-(benzo[d]oxazol-2-ylamino)-N-(2-hydroxyphenyl)-4-(2-chlorophenyl)-6-methyl-1,4-dihydropyrimidine-5-carboxamide]	6.85 µM		17.2 µM	17.2 µM	21.1 1 × 10^−6 cm/sec	<1 µg/mL	17.94 m	
CC1=C(C(=O)NCc2ccccc2CO)C(c2ccccc2Cl)N=C(Nc2nc3ccccc3o2)N1 (centres unmarked) [Compound 229, 2-(benzo[d]oxazol-2-ylamino)-4-(2-chlorophenyl)-N-(2-(hydroxymethyl)benzyl)-6-methyl-1,4-dihydropyrimidine-5-carboxamide]	6.11 µM		15.3 µM	15.3 µM	1362.3 1 × 10^−6 cm/sec	<1 µg/mL	5.0859 m	
COC(=O)c1cc(NC(=O)C2=C(C)NC(Nc3nc4ccccc4o3)=NC2c2ccccc2Cl)ccn1 (centres unmarked) [Compound 204, methyl 4-(2-(benzo[d]oxazol-2-ylamino)-4-(2-chlorophenyl)-6-methyl-1,4-dihydropyrimidine-5-carboxamido)picolinate]	7.69 µM	7.69 µM	10.9 µM	10.9 µM	49.2 1 × 10^−6 cm/sec	<1 µg/mL	>30 m	
CC1=C(C(=O)Nc2ccc(CN3CCOCC3)cc2)C(c2ccccc2Cl)N=C(Nc2nc3ccccc3o2)N1 (centres unmarked) [Compound 183, 2-(benzo[d]oxazol-2-ylamino)-4-(2-chlorophenyl)-6-methyl-N-(4-(morpholinomethyl)phenyl)-1,4-dihydropyrimidine-5-carboxamide]	5.44 µM	5.44 µM	9.68 µM	9.68 µM	120.4 1 × 10^−6 cm/sec	<1 µg/mL	22.3 m	
CC1=C(C(=O)Nc2nnc(-c3cccnc3)s2)C(c2ccccc2Cl)N=C(Nc2nc3ccc(F)cc3o2)N1 (centres unmarked) [Compound 100, 4-(2-chlorophenyl)-2-((6-fluorobenzo[d]oxazol-2-yl)amino)-6-methyl-N-(5-(pyridin-3-yl)-1,3,4-thiadiazol-2-yl)-1,4-dihydropyrimidine-5-carboxamide]		17.2 µM		38.5 µM				Perm. (1 × 10^−6 cm/sec) (PAMPA permeability): <9.9 1 × 10^−6 cm/sec; Sol. [1]: <1 µg/mL; Metab. Stabil. (m) ([2]; microsomal half-life): >30 m
CC1=C(C(=O)Nc2cc(C(=O)O)ccn2)[C@H](c2ccc(C)cc2Cl)N=C(Nc2nc3ccc(F)cc3o2)N1 [Compound 55, (R)-2-(4-(2-chloro-4-methylphenyl)-2-((6-fluorobenzo[d]oxazol-2-yl)amino)-6-methyl-1,4-dihydropyrimidine-5-carboxamido)isonicotinic acid]	15 µM	0.15 µM	1.37 µM	1.37 µM				Perm. (1 × 10^−6 cm/sec) (PAMPA permeability): <1 1 × 10^−6 cm/sec; Sol. [1]: >79 µg/mL; Metab. Stabil. (m) ([2]; microsomal half-life): >30 m
CCn1cc(CNC(=O)C2=C(C)NC(Nc3nc4cccc(N)c4o3)=NC2c2ccc(C)cc2Cl)cn1 (centres unmarked) [Compound 117, 2-((7-aminobenzo[d]oxazol-2-yl)amino)-4-(2-chloro-4-methylphenyl)-6-methyl-N-((1-ethyl-1H-pyrazol-4-yl)methyl)-1,4-dihydropyrimidine-5-carboxamide]		0.17 µM	3.06 µM					Perm. (1 × 10^−6 cm/sec) (PAMPA permeability): 360.4 1 × 10^−6 cm/sec; Sol. [1]: 2.43 µg/mL; Metab. Stabil. (m) ([2]; microsomal half-life): 11.3 m
CC1=C(C(=O)Nc2cc(CO)ccn2)C(c2ccccc2Cl)N=C(Nc2nc3ccc(F)cc3o2)N1 (centres unmarked) [Compound 37, 4-(2-chlorophenyl)-2-((6-fluorobenzo[d]oxazol-2-yl)amino)-N-(4-(hydroxymethyl)pyridin-2-yl)-6-methyl-1,4-dihydropyrimidine-5-carboxamide]	3.06 µM	3.06 µM	10.9 µM	10.9 µM				Perm. (1 × 10^−6 cm/sec) (PAMPA permeability): 59.9 1 × 10^−6 cm/sec; Sol. [1]: <1 µg/mL; Metab. Stabil. (m) ([2]; microsomal half-life): >30 m
COC(=O)c1ccc(NC(=O)C2=C(C)NC(Nc3nc4ccccc4o3)=NC2c2ccccc2Cl)cn1 (centres unmarked) [Compound 166, methyl 5-(2-(benzo[d]oxazol-2-ylamino)-4-(2-chlorophenyl)-6-methyl-1,4-dihydropyrimidine-5-carboxamido)picolinate]		6.11 µM		6.85 µM	96.1 1 × 10^−6 cm/sec	<1 µg/mL	4.678 m	
CC1=C(C(=O)Nc2cccc(CN)c2)C(c2ccccc2Cl)N=C(Nc2nc3ccccc3o2)N1 (centres unmarked) [Compound 171, N-(3-(aminomethyl)phenyl)-2-(benzo[d]oxazol-2-ylamino)-4-(2-chlorophenyl)-6-methyl-1,4-dihydropyrimidine-5-carboxamide]	10.9 µM	10.9 µM	6.85 µM	6.85 µM	32.7 1 × 10^−6 cm/sec	37.5 µg/mL	>30 m	
CC1=C(C(=O)NCc2cn(C)cn2)[C@H](c2ccccc2Cl)N=C(Nc2nc3ccccc3o2)N1 [Compound 235, (R)-2-(benzo[d]oxazol-2-ylamino)-4-(2-chlorophenyl)-6-methyl-N-((1-methyl-1H-imidazol-4-yl)methyl)-1,4-dihydropyrimidine-5-carboxamide]	3.06 µM	3.06 µM	4.32 µM	4.32 µM	866.5 1 × 10^−6 cm/sec	46.1 µg/mL	5.621 m	
COCCNC(=O)C1CC(=O)C2=C(C1)NC(Nc1nc3ccccc3o1)=NC2c1ccccc1Cl (centres unmarked) [Compound 280, 2-(benzo[d]oxazol-2-ylamino)-4-(2-chlorophenyl)-N-(2-methoxyethyl)-5-oxo-1,4,5,6,7,8-hexahydroquinazoline-7-carboxamide]					747.27 1 × 10^−6 cm/sec	4.23 µg/mL		IC50 (recombinant human GALK1; [7]): 4.85 µM; IC50 (recombinant mouse GALK1; recombinant mouse GALK1, Kinase-Glo Plus ATP depletion, bracketed figure in the cell, e.g. (−1.2), is not defined in the text shown, read-out: mGALK): 4.85 µM; Metab. Stabil. (m) [2, 8]: 10.16 m
COC(=O)c1cnc(NC(=O)C2=C(C)NC(Nc3nc4ccccc4o3)=NC2c2ccccc2Cl)s1 (centres unmarked) [Compound 185, methyl 2-(2-(benzo[d]oxazol-2-ylamino)-4-(2-chlorophenyl)-6-methyl-1,4-dihydropyrimidine-5-carboxamido)thiazole-5-carboxylate]	4.32 µM	4.32 µM	10.9 µM	10.9 µM		<1 µg/mL	15.91 m	Papp (PAMPA permeability; PAMPA, Perm. (1 × 10^−6 cm/sec)): < 7.6 ×10⁻⁶ cm/s
CC1=C(C(=O)Nc2ccc(N(C)C)cc2)C(c2ccccc2Cl)N=C(Nc2nc3ccccc3o2)N1 (centres unmarked) [Compound 152, 2-(benzo[d]oxazol-2-ylamino)-4-(2-chlorophenyl)-N-(4-(dimethylamino)phenyl)-6-methyl-1,4-dihydropyrimidine-5-carboxamide]	7.69 µM	7.69 µM	13.7 µM	13.7 µM	15.0 1 × 10^−6 cm/sec	<1 µg/mL	11.45 m	
CC1=C(C(=O)Nc2cccc(Cl)c2)C(c2ccccc2Cl)N=C(Nc2nc3ccccc3o2)N1 (centres unmarked) [Compound 154, 2-(benzo[d]oxazol-2-ylamino)-N-(3-chlorophenyl)-4-(2-chlorophenyl)-6-methyl-1,4-dihydropyrimidine-5-carboxamide]					<9.2 1 × 10^−6 cm/sec	<1 µg/mL	>30 m	hGALK IC50 (recombinant human GALK1; Tables 2-15, 35 μM ATP, 100 μM galactose, 1 h, bracketed figure after some values (e.g. −1.2) is undefined and not reported): inactive; hGALK (μM) (recombinant human GALK1; recombinant human GALK1, Kinase-Glo Plus ATP depletion): in- active; mGALK IC50 (recombinant mouse GALK1; Tables 2-15, 35 μM ATP, 100 μM galactose, 1 h, bracketed figure after some values is undefined and not reported): inactive; mGALK (μM) (recombinant mouse GALK1; recombinant mouse GALK1, Kinase-Glo Plus ATP depletion): in- active
CC1=C(C(=O)Nc2nncs2)C2(CCOC2)N=C(Nc2nc3ccccc3o2)N1 (centres unmarked) [Compound 260, 7-(benzo[d]oxazol-2-ylamino)-9-methyl-N-(1,3,4-thiadiazol-2-yl)-2-oxa-6,8-diazaspiro[4.5]deca-6,9-diene-10-carboxamide]					102.7 1 × 10^−6 cm/sec	37.9 µg/mL		IC50 (recombinant human GALK1; [7]): 12.2 µM; mGALK (μM) (recombinant mouse GALK1; recombinant mouse GALK1, Kinase-Glo Plus ATP depletion, bracketed figure in the cell, e.g. (−1.2), is not defined in the text shown): in- active; Metab. Stabil. (m) [2, 8]: >30 m
